According to article PMC8237569 (Proceedings of the National Academy of Sciences of the …, 2021):
Converted amounts (≈) assume the structure as drawn. Read-outs that look alike come from different tables or passages of the source.

What was measured:
[1] = tested on: NC1=NC2(CCCCC2)N(c2ccc(OCc3cn(CCCCOc4ccc5ccc(=O)oc5c4)nn3)cc2)C(N)=N1; assay: purified protein, by the assay type; conditions: pH 7.5
F-ATP synthase = conditions: read-out: IC50 against F-ATP synthase; cited from earlier work
[2] = tested on: M. tuberculosis H37Rv (ATCC 27294), wt; assay: microbe, parasite or virus in culture; assay type: cell-based; conditions: Mycobacterium tuberculosis, ATCC27294|H37RV

Compound | MIC50 [2] | also measured
Ddn (Rv3547) (Mycobacterium tuberculosis H37Rv) |  | Km [1]: 3.47 ± 0.51 µM
COc1nc2ccc(Br)cc2cc1[C@@H](c1ccccc1)[C@@](O)(CCN(C)C)c1cccc2ccccc12 [Bedaquiline] |  | IC50 (F-ATP synthase): 2.5 nM
Nc1ccc(C(=O)O)c(O)c1 [PAS, para-aminosalicylic acid] | 200 nM (≈ 0.0306 µg/mL) | 
NNC(=O)c1ccncc1 [INH, isoniazid] | 400 nM (≈ 0.0549 µg/mL) | 
O=[N+]([O-])c1cn2c(n1)OC[C@@H](OCc1ccc(OC(F)(F)F)cc1)C2 [PTM, pretomanid] | 200 nM (≈ 0.0719 µg/mL) | 
CO[C@H]1/C=C/O[C@@]2(C)Oc3c(C)c(O)c4c(O)c(c(/C=N/N5CCN(C)CC5)c(O)c4c3C2=O)NC(=O)/C(C)=C\C=C\[C@H](C)[C@H](O)[C@@H](C)[C@@H](O)[C@@H](C)[C@H](OC(C)=O)[C@@H]1C [RIF, rifampicin] |  | MIC50 ([2]; read-out: MIC50, RIF (nM)): 1.6 nM (≈ 0.00132 µg/mL)
